Experiment [1] addresses T1, human activated blood coagulation factor X (Homo sapiens, UniProt P00742).
T1 construct: purchased Calbiochem
Description: Measurement of inhibitory activity for activated blood coagulation factor X (S-2222 chromogenic substrate). The format is biochemical. The conditions noted are these: S-2222 substrate, pH 8.4, 10 minutes at 37° C., absorbance 405 nm. How it is done:
Measurement of inhibitory activity for activated blood coagulation factor X
2.5 μL of a dimethylsulfoxide solution of a test compound, 187.5 μL of 100 mM tris-200 mM NaCl buffer (pH 8.4) and 50 μL of 1 mM S-2222 (Daiichi Pure Chemicals) aqueous solution were poured into 96 well microplate. Then 10 μL of 0.6 U/mL human activated blood coagulation factor X (Calbiochem) in gelatin-glycine buffer was added and the mixture was incubated for 10 minutes at 37° C. The reaction was terminated with the addition of 50 μL of 60% acetic acid and absorbance (405 nm) was measured by a microplate reader (SPECTRAmax250, Molecular Devices).
The group with 2.5 μL of the dimethylsulfoxide solution instead of the test compound solution was defined as the control, and the group with 10 μL of the gelatin-glycine buffer solution instead of human activated blood coagulation factor X was defined as the blank. The concentration of a test compound that inhibited the absorbance of control by 50% (IC50) was obtained, and this value was used as the index of inhibitory activity for activated blood coagulation factor X. Results were shown as Table 1.

The target in another experiment is T2, human thrombin (Homo sapiens, UniProt P00734).
T2 construct: human thrombin (Sigma Chemical Company); purchased Sigma Chemical Company
Put plainly: Measurement of inhibitory activity for thrombin (S-2238 chromogenic substrate). In kind it is biochemical. The conditions noted are these: S-2238 substrate, pH 8.4, 10 minutes at 37° C., absorbance 405 nm. How it is done:
Measurement of inhibitory activity for thrombin
2.5 μL of a dimethylsulfoxide solution of a test compound, 187.5 μL of 100 mM tris-200 mM NaCl buffer (pH 8.4) and 50 μL of 1 mM S-2238 (Daiichi Pure Chemicals) aqueous solution were poured into 96 well microplate. Then 10 μL of 2.0 U/mL human thrombin (Sigma Chemical Company) in gelatin-glycine buffer was added and the mixture was incubated for 10 minutes at 37° C. The reaction was terminated with the addition of 50 μL of 60% acetic acid and absorbance (405 nm) was measured by a microplate reader (SPECTRAmax250, Molecular Devices).
The group with 2.5 μL of the dimethylsulfoxide solution instead of the test compound solution was defined as the control, and the group with 10 μL of the gelatin-glycine buffer solution instead of human thrombin was defined as the blank. The concentration of a test compound that inhibited the absorbance of control by 50% (IC50) was obtained, and this value was used as the index of inhibitory activity for thrombin.

T1 sequence (P00742 235-488 limits assumed): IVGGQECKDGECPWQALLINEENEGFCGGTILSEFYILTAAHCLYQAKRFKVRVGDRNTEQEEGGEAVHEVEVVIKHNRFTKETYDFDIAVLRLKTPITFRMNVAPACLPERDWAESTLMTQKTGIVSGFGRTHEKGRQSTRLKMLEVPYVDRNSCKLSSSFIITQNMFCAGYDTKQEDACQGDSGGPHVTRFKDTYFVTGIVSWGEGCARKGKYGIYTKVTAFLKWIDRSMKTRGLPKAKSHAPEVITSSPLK
T1 sequence (P00742 41-179 partner limits assumed): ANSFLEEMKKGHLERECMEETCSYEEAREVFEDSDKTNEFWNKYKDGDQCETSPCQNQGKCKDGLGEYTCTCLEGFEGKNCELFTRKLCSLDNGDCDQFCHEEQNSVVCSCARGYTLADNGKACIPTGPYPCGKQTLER

On to `CC(C)c1ccc(CCN(C)S(=O)(=O)c2cc(C(=N)N)ccc2O)cc1` [Compound 17, 5-Carbamimidoyl-2-hydroxy-N-[2-(4-isopropylphenyl)ethyl]-N-methylbenzenesulfonamide], for which the IC50 (commonly the concentration that gives 50% inhibition) turned out to be 160 nM in experiment [1] and 26000 nM on human thrombin.

Regarding `CC(C)c1ccc(CCN(CC(=O)N2CCOCC2)S(=O)(=O)c2cc(C(=N)N)ccc2O)cc1` [Compound 14, 5-Carbamimidoyl-2-hydroxy-N-[2-(4-isopropylphenyl)ethyl]-N-(2-morpholin-4-yl-2-oxoethyl)benzenesulfonamide], the half-inhibitory concentration (IC50) in experiment [1] came out at 51 nM; against human thrombin it was 27000 nM.

Molecule `N=C(N)c1ccc(O)c(S(=O)(=O)NCCc2ccc(-c3ccccc3S(N)(=O)=O)cc2)c1` [Compound 15, 5-Carbamimidoyl-2-hydroxy-N-[2-(2′-sulfamoylbiphenyl-4-yl)-ethyl]benzenesulfnamide] gave a concentration for half-maximal inhibition (IC50) in experiment [1] of 3.8 nM.

Values taken from patent publication US20050014787A1, “5-amidino-2-hydroxybenzenesulfonamide derivatives medicinal compoistions containing the same medicinal use thereof and intermediates in the production thereof” (priority 2001, published 2005).
